Laboratory results as given in the NIST ThermoML archive (doi:10.1016/j.jct.2016.07.012).
“And” between values parts separate entries of the source, which are not always exact repeats. Identical values can stand only once.

Assay: molar heat capacity at constant pressure
Conditions: 101.33 kPa, Metastable crystal, Small (less than 1 g) adiabatic calorimetry

CCCCn1cc[n+](C)c1.F[P-](F)(F)(F)(F)F [1-butyl-3-methylimidazolium hexafluorophosphate]
Conditions	molar heat capacity at constant pressure
5.14 K	2.42 J/K/mol
5.39 K	2.76 J/K/mol and 1.64 J/K/mol
5.67 K	1.92 J/K/mol
5.74 K	3.28 J/K/mol
6.01 K	2.31 J/K/mol
6.1 K	3.85 J/K/mol
6.43 K	2.83 J/K/mol
6.54 K	4.59 J/K/mol
6.93 K	3.51 J/K/mol
7.06 K	5.54 J/K/mol
7.43 K	4.3 J/K/mol
7.59 K	6.57 J/K/mol
7.94 K	5.16 J/K/mol
8.12 K	7.67 J/K/mol
8.46 K	6.12 J/K/mol
8.66 K	8.84 J/K/mol
8.98 K	7.15 J/K/mol
9.2 K	10.06 J/K/mol
9.51 K	8.25 J/K/mol
9.75 K	11.33 J/K/mol
10.05 K	9.41 J/K/mol
10.36 K	12.83 J/K/mol
10.66 K	10.82 J/K/mol
11.05 K	14.53 J/K/mol
11.34 K	12.43 J/K/mol
11.75 K	16.3 J/K/mol
12.02 K	14.11 J/K/mol
12.45 K	18.11 J/K/mol
12.71 K	15.86 J/K/mol
13.16 K	19.96 J/K/mol
13.41 K	17.66 J/K/mol
13.87 K	21.84 J/K/mol
14.11 K	19.5 J/K/mol
14.59 K	23.69 J/K/mol
14.82 K	21.33 J/K/mol
15.31 K	25.67 J/K/mol
15.64 K	23.71 J/K/mol
16.14 K	28.07 J/K/mol
16.58 K	26.38 J/K/mol
17.09 K	30.62 J/K/mol
17.53 K	28.96 J/K/mol
18.04 K	33.1 J/K/mol
18.47 K	31.53 J/K/mol
18.99 K	35.56 J/K/mol
19.42 K	34.1 J/K/mol
19.94 K	37.99 J/K/mol
20.38 K	36.68 J/K/mol
21.2 K	41.25 J/K/mol
21.63 K	40.09 J/K/mol
22.78 K	45.26 J/K/mol
23.2 K	44.28 J/K/mol
24.36 K	49.25 J/K/mol
24.78 K	48.5 J/K/mol
25.94 K	53.1 J/K/mol
26.36 K	52.53 J/K/mol
27.42 K	56.44 J/K/mol
27.74 K	55.76 J/K/mol
28.99 K	60 J/K/mol
29.16 K	59.25 J/K/mol
30.59 K	63.64 J/K/mol
30.76 K	63.06 J/K/mol
32.36 K	67.48 J/K/mol
32.52 K	67.01 J/K/mol
34.28 K	71.38 J/K/mol
34.44 K	71.11 J/K/mol
36.21 K	75.09 J/K/mol
36.36 K	74.97 J/K/mol
38.14 K	78.66 J/K/mol
38.29 K	78.65 J/K/mol
40.07 K	82.09 J/K/mol
40.21 K	82.2 J/K/mol
42.09 K	85.6 J/K/mol
42.23 K	85.83 J/K/mol
44.21 K	89.2 J/K/mol
44.36 K	89.57 J/K/mol
46.33 K	92.75 J/K/mol
46.49 K	93.18 J/K/mol
48.45 K	96.18 J/K/mol
48.62 K	96.7 J/K/mol
50.58 K	99.47 J/K/mol
50.75 K	100 J/K/mol
52.71 K	102.6 J/K/mol
52.88 K	103.3 J/K/mol
54.84 K	105.6 J/K/mol
55.01 K	106.3 J/K/mol
56.97 K	108.5 J/K/mol
57.15 K	109.3 J/K/mol
59.11 K	111.3 J/K/mol
59.29 K	112.2 J/K/mol
61.24 K	114 J/K/mol
61.43 K	115 J/K/mol
63.37 K	116.6 J/K/mol
63.57 K	117.8 J/K/mol
65.51 K	119.2 J/K/mol
65.71 K	120.5 J/K/mol
67.65 K	121.8 J/K/mol
67.86 K	123.3 J/K/mol
69.79 K	124.4 J/K/mol
70.01 K	126 J/K/mol
72.04 K	127 J/K/mol
72.26 K	128.8 J/K/mol
74.39 K	129.8 J/K/mol
74.61 K	131.7 J/K/mol
76.74 K	132.5 J/K/mol
76.97 K	134.6 J/K/mol
78.34 K	134.5 J/K/mol
78.72 K	137.3 J/K/mol
79.09 K	135.1 J/K/mol
79.34 K	137.4 J/K/mol
80.13 K	136.3 J/K/mol
80.5 K	139.2 J/K/mol
81.45 K	137.7 J/K/mol
81.7 K	140.2 J/K/mol
81.8 K	138.1 J/K/mol
82.15 K	141.2 J/K/mol
83.48 K	139.8 J/K/mol
83.81 K	140.2 J/K/mol
83.82 K	143 J/K/mol
84.07 K	142.9 J/K/mol
85.17 K	141.6 J/K/mol
85.49 K	145 J/K/mol
86.86 K	143.5 J/K/mol
87.17 K	146.9 J/K/mol
88.56 K	145.3 J/K/mol
88.85 K	148.6 J/K/mol
90.27 K	147.2 J/K/mol
90.55 K	150.8 J/K/mol
91.99 K	149 J/K/mol
92.25 K	152.7 J/K/mol
93.71 K	150.9 J/K/mol
93.96 K	154.7 J/K/mol
95.45 K	152.7 J/K/mol
95.67 K	156.7 J/K/mol
97.19 K	154.7 J/K/mol
97.39 K	159.1 J/K/mol
98.94 K	156.5 J/K/mol
99.12 K	160.7 J/K/mol
100.69 K	158.4 J/K/mol
100.85 K	162.3 J/K/mol
102.5 K	160.3 J/K/mol
102.65 K	164.4 J/K/mol
104.38 K	162.4 J/K/mol
104.51 K	166.4 J/K/mol
106.27 K	164.4 J/K/mol
106.38 K	168.5 J/K/mol
108.17 K	166.5 J/K/mol
108.26 K	170.5 J/K/mol
110.06 K	168.6 J/K/mol
110.13 K	172.5 J/K/mol
111.96 K	170.7 J/K/mol
112.01 K	174.6 J/K/mol
113.86 K	172.8 J/K/mol
113.9 K	176.6 J/K/mol
115.77 K	174.9 J/K/mol
115.78 K	178.7 J/K/mol
117.67 K	180.7 J/K/mol
117.68 K	177.1 J/K/mol
119.56 K	182.8 J/K/mol
119.59 K	179.2 J/K/mol
121.46 K	184.9 J/K/mol
121.5 K	181.4 J/K/mol
123.35 K	186.9 J/K/mol
123.41 K	183.7 J/K/mol
125.25 K	189.1 J/K/mol
